2 compounds from patent publication EP4740947A1, “PHARMACEUTICAL COMBINATION OF EGFR KINASE INHIBITOR AND C-MET KINASE INHIBITOR FOR TREATING TUMOR DISEASES” (Jiangsu AoSaiKang Pharmaceutical Co., Ltd., priority 2023, dated 2025) can be followed below.

The assay deals with NCI-H1975-HGF. As to the kind of experiment: Efficacy study in xenograft model established with engineered cell line NCI-H1975-HGF in immunodeficient mice. It is filed as in vivo, B-NDG mice. Particulars: for NCI-H1975 HGF tumor volume (mm^3): mean ± standard error; for TGI (%) / ΔT/ΔC (%): Day 15 vs vehicle. Here is the method:
The efficacy of the test drugs in a xenograft model established with the engineered cell line NCI-H1975-HGF in immunodeficient mice was verified.
Table 1. Cell information
B-NDG mice, female, age: 8 weeks, weight: 18-22 g, purchased from Biocytogen.
• Vehicle: 20% solutol/80% 100 mM sodium acetate buffer pH 5.5; • ASK-MET: hydrochloride of the compound of Formula (II), prepared with 20% solutol/80% 100 mM sodium acetate buffer pH 5.5, concentration: 0.2 mg/mL; • ASK-EGFR: compound of Formula (I), prepared with 0.5% sodium carboxymethyl cellulose solution (0.5%CMC-Na), concentration: 2 mg/mL. • Solutol: polyethylene glycol-15 hydroxystearate; • 100 mM sodium acetate buffer pH 5.5; • 20% solutol/80% 100 mM sodium acetate buffer pH 5.5 means that the volume ratio of solutol to 100 mM sodium acetate buffer pH 5.5 in the drug solution was 20:80, the same below.
1) NCI-H1975-HGF was resuscitated and cultured in vitro to obtain 1.5*10^7 cells. 2) 15 8-10-week-old immunodeficient mice were adaptively raised for 1 week, and weighed. Table 2. Inoculation information
4) After inoculation, the tumor volume and weight were measured twice a week. When the average tumor volume reached about 100 mm^3, the animals were randomly divided into 4 groups according to the tumor volume and weight, each group having 3 animals. The animals were immediately administered after grouping. The day of administration was regarded as day 0. Table 3. Grouping and administration information
After inoculation and before grouping, when the tumor was visible, the tumor volume of the test animals was measured once a week. After grouping, the tumor volume of animals in the experiment was measured twice a week. The tumor volume was measured by a two-way measurement method. The major and minor diameter of the tumor were measured by vernier caliper, and then the tumor volume was calculated by the formula TV = 1/2 × a × b^2, where a is the major diameter of the tumor and b is the minor diameter of the tumor.
At the end of the experiment, the following analysis methods were used for data analysis (Table 4). Table 4. Data analysis methods
For an experiment having two groups, T-Test analysis method is used; and for comparison of three or more groups, One-Way ANOVA method is used for analysis. For the potential synergistic effect, Two-Way ANOVA is used. There is a significant difference when p value is less than 0.05.

Setting [1] is: ASK-EGFR 20 mg/kg p.o. QD×15 (G4).
[2] abbreviates: ASK-MET 2 mg/kg p.o. QD×15 (G2).

Consider `C=CC(=O)Nc1cc(Nc2ncc(Cl)c(Nc3ccc4ccccc4c3)n2)c(OC)cc1N(C)CCN(C)C` [ASK-EGFR, N-((5-((5-chloro-4-((naphthalen-2-yl)amino))pyrimidin-2-yl)amino)-2-((N-methyl-N-dimethylaminoethyl)amino)-4-methoxyphenyl) acrylamide], for which the “NCI-H1975 HGF tumor volume (mm^3)” value (Day 0, ASK-EGFR 20 mg/kg p.o. QD×15 (G4)) is 94.47 ±9.54 mm^3; the “NCI-H1975 HGF tumor volume (mm^3)” value (Day 2, ASK-EGFR 20 mg/kg p.o. QD×15 (G4)) amounted to 154.47 ±24.23 mm^3; the “NCI-H1975 HGF tumor volume (mm^3)” value (Day 5, ASK-EGFR 20 mg/kg p.o. QD×15 (G4)) is reported as 201.41 ±24.69 mm^3; the “NCI-H1975 HGF tumor volume (mm^3)” value (Day 8, ASK-EGFR 20 mg/kg p.o. QD×15 (G4)) came out at 357.90 ±31.91 mm^3; the “NCI-H1975 HGF tumor volume (mm^3)” value (Day 12, ASK-EGFR 20 mg/kg p.o. QD×15 (G4)) was found to be 440.56 ±16.92 mm^3; the “NCI-H1975 HGF tumor volume (mm^3)” value (Day 15, ASK-EGFR 20 mg/kg p.o. QD×15 (G4)) is 589.86±36.92 mm^3. Also, the “TGI (%)” value under setting [1] is given as 58.01%. The “ΔT/ΔC (%)” value under setting [1] is 41.99%.
`CC(C)(O)CN1CCC(COc2cnc(-c3cccc(Cn4c(=O)ccn5c6cc(C#N)ccc6nc45)c3)nc2)CC1` [ASK-MET]: the “NCI-H1975 HGF tumor volume (mm^3)” value stood at 96.28 ±7.10 mm^3 (Day 0, ASK-MET 2 mg/kg p.o. QD×15 (G2)); 147.46 ±23.06 mm^3 (Day 2, ASK-MET 2 mg/kg p.o. QD×15 (G2)); 274.61 ±85.69 mm^3 (Day 5, ASK-MET 2 mg/kg p.o. QD×15 (G2)); 434.60 ±55.60 mm^3 (Day 8, ASK-MET 2 mg/kg p.o. QD×15 (G2)); 658.86 ±111.99 mm^3 (Day 12, ASK-MET 2 mg/kg p.o. QD×15 (G2)); 940.03±159.86 mm^3 (Day 15, ASK-MET 2 mg/kg p.o. QD×15 (G2)). In addition, under setting [2], the “TGI (%)” value is listed as 28.48%. Also, the “ΔT/ΔC (%)” value under setting [2] amounted to 71.52%.
